tested on: E. coli BL21 Amp^R; assay: Bacteria colony counting method; type: cell-based, Escherichia coli; conditions: 100 µg peptide, 37 °C 2 h, plated, colonies counted after 12–18 h, n = 5, numbers only in Fig. 1b
Method: (§1) The antimicrobial activity assays were completed in a specialized laboratory. Red blood cells were collected from healthy adults at the 307 hospital laboratory. All participants gave informed consent to participate in the study.
(§2) Twenty microliters of the culture was diluted in LB (final volume 1 ml) and was evenly coated on an LB plate, inverted and incubated at 37 °C for 12–18 h and then the bacterial colonies were counted.

Row | Substance | antibacterial activity by colony counting
1 | CLRIGMRGRELMGGIGKTM [pCM19, 19 amino acids from positions 42 to 60 of hGlyrichin] | good inhibition and killing
2 | CLRIGMRGREL [pCM11, pCM12 with the last amino acid residue removed] | lost its antibacterial activity
3 | CLRIGMRGRELM [pCM12, 12 amino acids of pCM19 from which 7 amino acids at the carboxyl terminal were removed] | good inhibition and killing
4 | GICRLMMRRGLE [RC, a random array of pCM12] | almost completely lost its bactericidal activity
5 | GGIGKTM [flexible peptide, a GIG array, the portion that is different between pCM19 and pCM12] | almost completely lost the antibacterial activity

tested on: E. coli BL21; assay: Bacteria colony counting method; type: cell-based, Escherichia coli; conditions: 100 µg peptide, 37 °C 2 h, plated, colonies counted after 12–18 h, n = 5, numbers only in Fig. 1a
Method: as §1, §2

Row | Substance | antibacterial activity by colony counting
6 | CLRIGMRGRELMGGIGKTM [pCM19, 19 amino acids from positions 42 to 60 of hGlyrichin] | effectively inhibited the growth
7 | CLRIGMRGREL [pCM11, pCM12 with the last amino acid residue removed] | lost its antibacterial activity
8 | CLRIGMRGRELM [pCM12, 12 amino acids of pCM19 from which 7 amino acids at the carboxyl terminal were removed] | effectively inhibited the growth
9 | GICRLMMRRGLE [RC, a random array of pCM12] | almost completely lost its bactericidal activity
10 | GGIGKTM [flexible peptide, a GIG array, the portion that is different between pCM19 and pCM12] | almost completely lost the antibacterial activity

tested on: S. aureus (ATCC 25923); assay: Bacteria colony counting method; type: cell-based, Staphylococcus aureus; conditions: 100 µg peptide, 37 °C 2 h, plated, colonies counted after 12–18 h, n = 5, numbers only in Fig. 1c
Method: as §1, §2

Row | Substance | antibacterial activity by colony counting
11 | CLRIGMRGRELMGGIGKTM [pCM19, 19 amino acids from positions 42 to 60 of hGlyrichin] | effectively inhibited the growth
12 | CLRIGMRGREL [pCM11, pCM12 with the last amino acid residue removed] | lost its antibacterial activity
13 | CLRIGMRGRELM [pCM12, 12 amino acids of pCM19 from which 7 amino acids at the carboxyl terminal were removed] | effectively inhibited the growth
14 | GICRLMMRRGLE [RC, a random array of pCM12] | almost completely lost its bactericidal activity
15 | GGIGKTM [flexible peptide, a GIG array, the portion that is different between pCM19 and pCM12] | almost completely lost the antibacterial activity

tested on: S. aureus Amp^R (ATCC BAA-44); assay: Bacteria colony counting method; type: cell-based, Staphylococcus aureus; conditions: 100 µg peptide, 37 °C 2 h, plated, colonies counted after 12–18 h, n = 5, numbers only in Fig. 1d
Method: as §1, §2

Row | Substance | antibacterial activity by colony counting
16 | CLRIGMRGRELMGGIGKTM [pCM19, 19 amino acids from positions 42 to 60 of hGlyrichin] | good inhibition and killing
17 | CLRIGMRGREL [pCM11, pCM12 with the last amino acid residue removed] | lost its antibacterial activity
18 | CLRIGMRGRELM [pCM12, 12 amino acids of pCM19 from which 7 amino acids at the carboxyl terminal were removed] | good inhibition and killing
19 | GICRLMMRRGLE [RC, a random array of pCM12] | almost completely lost its bactericidal activity
20 | GGIGKTM [flexible peptide, a GIG array, the portion that is different between pCM19 and pCM12] | almost completely lost the antibacterial activity

tested on: S. Typhi (ATCC 19430); assay: Bacteria colony counting method; type: cell-based, Salmonella Typhi; conditions: 100 µg peptide, 37 °C 2 h, plated, colonies counted after 12–18 h, n = 5, numbers only in Fig. 1e
Method: as §1, §2

Row | Substance | antibacterial activity by colony counting
21 | CLRIGMRGRELMGGIGKTM [pCM19, 19 amino acids from positions 42 to 60 of hGlyrichin] | effectively inhibited the growth
22 | CLRIGMRGREL [pCM11, pCM12 with the last amino acid residue removed] | lost its antibacterial activity
23 | CLRIGMRGRELM [pCM12, 12 amino acids of pCM19 from which 7 amino acids at the carboxyl terminal were removed] | effectively inhibited the growth
24 | GICRLMMRRGLE [RC, a random array of pCM12] | almost completely lost its bactericidal activity
25 | GGIGKTM [flexible peptide, a GIG array, the portion that is different between pCM19 and pCM12] | almost completely lost the antibacterial activity

tested on: human red blood cells; assay: In vitro hemolysis assay; type: cell-based; conditions: 1 h 37 °C, even at a much higher concentration than the effective antibacterial dose (up to 3000 µg/ml)
Method: as §1
Blood samples from healthy donors were treated with heparin to minimize clotting. The blood cell was washed three times with normal saline, and 8 µl samples were diluted to 100 µl in normal saline. The diluted blood cell (100 µl) was incubated with 100 µl of pCM19 (3000 µg/ml) for 1 h at 37 °C; then the same volume diluted blood cell was incubated with 100 µl of pCM12 (100, 200, 500, 1000, 2000, 3000 µg/ml) for 1 h at 37 °C. Centrifugation was carried out at 1000 rpm for 5 min at 4 °C. Each treatment was performed in triplicate. The absorbance of each sample was measured at 570 nm using a microplate reader.

Row | Substance | damage to red cell membranes (hemolysis), in words
26 | CLRIGMRGRELMGGIGKTM [pCM19, 19 amino acids from positions 42 to 60 of hGlyrichin] | caused no damage to the red cell membranes
27 | CLRIGMRGRELM [pCM12, 12 amino acids of pCM19 from which 7 amino acids at the carboxyl terminal were removed] | caused no damage to the red cell membranes
